Test results: PubChem BioAssay (NCI)
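48-hour exposure; five concentrations; linearly interpolated endpoints. TGI marks complete inhibition of growth.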

Assays:
Test in all cases: NCI-60 cell line screen, 48 h
786-0 renal = system: 786-0 renal
A549 NSCLC = system: A549 NSCLC
ACHN renal = system: ACHN renal
BT-549 breast = system: BT-549 breast
CAKI-1 renal = system: CAKI-1 renal
CCRF-CEM leukemia = system: CCRF-CEM leukemia
COLO 205 colon = system: COLO 205 colon
DU-145 prostate = system: DU-145 prostate
EKVX NSCLC = system: EKVX NSCLC
HCC-2998 colon = system: HCC-2998 colon
HCT-116 colon = system: HCT-116 colon
HCT-15 colon = system: HCT-15 colon
HL-60(TB) leukemia = system: HL-60(TB) leukemia
HOP-62 NSCLC = system: HOP-62 NSCLC
HOP-92 NSCLC = system: HOP-92 NSCLC
HS 578T breast = system: HS 578T breast
HT29 colon = system: HT29 colon
IGROV1 ovarian = system: IGROV1 ovarian
K-562 leukemia = system: K-562 leukemia
KM12 colon = system: KM12 colon
LOX IMVI melanoma = system: LOX IMVI melanoma
M14 melanoma = system: M14 melanoma
MCF7 breast = system: MCF7 breast
MDA-MB-231 breast = system: MDA-MB-231 breast
MDA-MB-435 = system: MDA-MB-435
MDA-N = system: MDA-N
MOLT-4 leukemia = system: MOLT-4 leukemia
NCI-H460 lung = system: NCI-H460 lung
NCI/ADR-RES ovarian = system: NCI/ADR-RES ovarian
OVCAR-3 ovarian = system: OVCAR-3 ovarian
OVCAR-4 ovarian = system: OVCAR-4 ovarian
OVCAR-5 ovarian = system: OVCAR-5 ovarian
OVCAR-8 ovarian = system: OVCAR-8 ovarian
PC-3 prostate = system: PC-3 prostate
RPMI-8226 leukemia = system: RPMI-8226 leukemia
RXF 393 renal = system: RXF 393 renal
SF-268 CNS = system: SF-268 CNS
SF-295 CNS = system: SF-295 CNS
SF-539 CNS = system: SF-539 CNS
SK-MEL-2 melanoma = system: SK-MEL-2 melanoma
SK-MEL-28 melanoma = system: SK-MEL-28 melanoma
SK-MEL-5 melanoma = system: SK-MEL-5 melanoma
SK-OV-3 ovarian = system: SK-OV-3 ovarian
SN12C renal = system: SN12C renal
SNB-19 CNS = system: SNB-19 CNS
SNB-75 CNS = system: SNB-75 CNS
SR leukemia = system: SR leukemia
SW-620 colon = system: SW-620 colon
T-47D breast = system: T-47D breast
TK-10 renal = system: TK-10 renal
U251 CNS = system: U251 CNS
UACC-257 melanoma = system: UACC-257 melanoma
UACC-62 melanoma = system: UACC-62 melanoma
UO-31 renal = system: UO-31 renal
A498 renal = system: A498 renal
MALME-3M melanoma = system: MALME-3M melanoma
NCI-H226 lung = system: NCI-H226 lung
NCI-H23 lung = system: NCI-H23 lung
NCI-H522 lung = system: NCI-H522 lung

For `COc1cc(/C=C2\N=C(c3ccccc3)N(c3nc4cc(C)c(C)cc4s3)C2=O)ccc1O`, the TGI (786-0 renal) was over 100 µM, the TGI (A549 NSCLC) was over 100 µM and the TGI (ACHN renal) was over 100 µM. For the same molecule, the TGI (BT-549 breast) was over 100 µM, the TGI (CAKI-1 renal) was over 100 µM and the TGI (CCRF-CEM leukemia) was 39.1 µM. For the same molecule, the TGI (COLO 205 colon) was over 100 µM, the TGI (DU-145 prostate) was over 100 µM and the TGI (EKVX NSCLC) was over 100 µM. It also gave a TGI (HCC-2998 colon) of 69.9 µM, a TGI (HCT-116 colon) of 61.8 µM and a TGI (HCT-15 colon) of over 100 µM. For the same molecule, the TGI (HL-60(TB) leukemia) was 43.9 µM, the TGI (HOP-62 NSCLC) was over 100 µM and the TGI (HOP-92 NSCLC) was over 100 µM. It also gave a TGI (HS 578T breast) of over 100 µM, a TGI (HT29 colon) of 99.1 µM and a TGI (IGROV1 ovarian) of over 100 µM. The TGI (K-562 leukemia) was over 100 µM, the TGI (KM12 colon) was over 100 µM and the TGI (LOX IMVI melanoma) was over 100 µM. For the same molecule, the TGI (M14 melanoma) was over 100 µM, the TGI (MCF7 breast) was 39.1 µM and the TGI (MDA-MB-231 breast) was over 100 µM. For the same molecule, the TGI (MDA-MB-435) was 52.1 µM, the TGI (MDA-N) was 37.7 µM and the TGI (MOLT-4 leukemia) was over 100 µM. The TGI (NCI-H460 lung) was over 100 µM, the TGI (NCI/ADR-RES ovarian) was over 100 µM and the TGI (OVCAR-3 ovarian) was 65.3 µM. The TGI (OVCAR-4 ovarian) was over 100 µM, the TGI (OVCAR-5 ovarian) was over 100 µM and the TGI (OVCAR-8 ovarian) was over 100 µM. For the same molecule, the TGI (PC-3 prostate) was over 100 µM, the TGI (RPMI-8226 leukemia) was over 100 µM and the TGI (RXF 393 renal) was 82.2 µM. For the same molecule, the TGI (SF-268 CNS) was over 100 µM, the TGI (SF-295 CNS) was over 100 µM and the TGI (SF-539 CNS) was 60.9 µM. For the same molecule, the TGI (SK-MEL-2 melanoma) was over 100 µM, the TGI (SK-MEL-28 melanoma) was over 100 µM and the TGI (SK-MEL-5 melanoma) was over 100 µM. It also gave a TGI (SK-OV-3 ovarian) of over 100 µM, a TGI (SN12C renal) of 78.9 µM and a TGI (SNB-19 CNS) of over 100 µM. The TGI (SNB-75 CNS) was over 100 µM, the TGI (SR leukemia) was 57.8 µM and the TGI (SW-620 colon) was over 100 µM. The TGI (T-47D breast) was over 100 µM, the TGI (TK-10 renal) was over 100 µM and the TGI (U251 CNS) was over 100 µM. For the same molecule, the TGI (UACC-257 melanoma) was over 100 µM, the TGI (UACC-62 melanoma) was over 100 µM and the TGI (UO-31 renal) was over 100 µM.
Molecule `C=C1C(=O)O[C@@H]2[C@@H]3O[C@@H](C[C@@H]13)[C@](C)(O)CC/C=C(\C)CCC[C@@H]2C` has a TGI (786-0 renal) of 18.9 µM, a TGI (A498 renal) of 26.2 µM and a TGI (A549 NSCLC) of 34.3 µM. It also gave a TGI (ACHN renal) of 21.2 µM, a TGI (BT-549 breast) of 27.5 µM and a TGI (CAKI-1 renal) of 28.6 µM. For the same molecule, the TGI (CCRF-CEM leukemia) was 34.8 µM, the TGI (COLO 205 colon) was 31.5 µM and the TGI (DU-145 prostate) was 29.6 µM. It also gave a TGI (EKVX NSCLC) of 32 µM, a TGI (HCC-2998 colon) of 32.7 µM and a TGI (HCT-116 colon) of 21.2 µM. It also gave a TGI (HCT-15 colon) of 33.4 µM, a TGI (HL-60(TB) leukemia) of 10.4 µM and a TGI (HOP-62 NSCLC) of 30.5 µM. It also gave a TGI (HOP-92 NSCLC) of 29.3 µM, a TGI (HS 578T breast) of 37.8 µM and a TGI (HT29 colon) of over 100 µM. The TGI (IGROV1 ovarian) was 22.6 µM, the TGI (K-562 leukemia) was 85.5 µM and the TGI (KM12 colon) was 43.1 µM. For the same molecule, the TGI (LOX IMVI melanoma) was 19.2 µM, the TGI (M14 melanoma) was 27 µM and the TGI (MALME-3M melanoma) was 26.8 µM. It also gave a TGI (MCF7 breast) of 22.1 µM, a TGI (MDA-MB-231 breast) of 37.5 µM and a TGI (MDA-MB-435) of 24.9 µM. For the same molecule, the TGI (MDA-N) was 18.3 µM, the TGI (MOLT-4 leukemia) was over 100 µM and the TGI (NCI-H226 lung) was 36.1 µM. The TGI (NCI-H23 lung) was 28 µM, the TGI (NCI-H460 lung) was 30.8 µM and the TGI (NCI-H522 lung) was 20.1 µM. The TGI (NCI/ADR-RES ovarian) was 38.5 µM, the TGI (OVCAR-3 ovarian) was 25.8 µM and the TGI (OVCAR-4 ovarian) was 29.6 µM. It also gave a TGI (OVCAR-5 ovarian) of 48 µM, a TGI (OVCAR-8 ovarian) of 22.2 µM and a TGI (PC-3 prostate) of 22.9 µM. It also gave a TGI (RPMI-8226 leukemia) of 20.6 µM, a TGI (RXF 393 renal) of 30.1 µM and a TGI (SF-268 CNS) of 43.9 µM. The TGI (SF-295 CNS) was 44.7 µM, the TGI (SF-539 CNS) was 24.9 µM and the TGI (SK-MEL-2 melanoma) was 27.7 µM. It also gave a TGI (SK-MEL-28 melanoma) of 33.3 µM, a TGI (SK-MEL-5 melanoma) of 30.6 µM and a TGI (SK-OV-3 ovarian) of 34 µM. For the same molecule, the TGI (SN12C renal) was 25.3 µM, the TGI (SNB-19 CNS) was 29.8 µM and the TGI (SNB-75 CNS) was 26.1 µM. The TGI (SW-620 colon) was 38.4 µM, the TGI (T-47D breast) was 43.9 µM and the TGI (TK-10 renal) was 27.7 µM. For the same molecule, the TGI (U251 CNS) was 22.8 µM, the TGI (UACC-257 melanoma) was 27 µM and the TGI (UACC-62 melanoma) was 25.4 µM. For the same molecule, the TGI (UO-31 renal) was 23 µM.
